From patent US20240158418A1 (C4 Therapeutics, Inc., priority 2021, published 2024)

Legend:
Assay type in all cases: cell-based
EGFR L858R-T790M = molecular target: T1, EGFR L858R-T790M (Homo sapiens, UniProt P00533, L858R/T790M); assay: EGFR degradation, Total EGFR (L858R-specific) HTRF, NCI-H1975; conditions: Table 9A; NCI-H1975 cells, 6 hours, Total EGFR HTRF; read-out: H1975 EGFR DC50
T1 construct: NCI-H1975 (harboring EGFR heterozygous L858R-T790M mutations); host or cells: NCI-H1975
Outline: (§1)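 Cells in RPMI 1640 + 10% FBS treated 6 h at 37°C with compound, 11-point half-log titration from 10 μM top, in duplicate. pY1068 and total EGFR read by HTRF (pan-EGFR antibody for wild-type A431; L858R-specific for mutants); IC50 for phospho inhibition, DC50 for 50% degradation.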

EGFR L858R-T790M-C797S = molecular target: T2, EGFR L858R-T790M-C797S (Homo sapiens, UniProt P00533, C797S/L858R/T790M); assay: EGFR degradation, Total EGFR (L858R-specific) HTRF, NCI-H1975+CS; conditions: Table 9A; NCI-H1975+CS cells, 6 hours, Total EGFR HTRF; read-out: H1975+ CS EGFR DC50
T2 construct: generated using CRISPR technology to introduce the additional C797S mutation by Horizon Discovery; host or cells: NCI-H1975+CS (CRISPR knock-in of C797S)
T2 sequence (P00533 25-1210 T790M/C797S/L858R): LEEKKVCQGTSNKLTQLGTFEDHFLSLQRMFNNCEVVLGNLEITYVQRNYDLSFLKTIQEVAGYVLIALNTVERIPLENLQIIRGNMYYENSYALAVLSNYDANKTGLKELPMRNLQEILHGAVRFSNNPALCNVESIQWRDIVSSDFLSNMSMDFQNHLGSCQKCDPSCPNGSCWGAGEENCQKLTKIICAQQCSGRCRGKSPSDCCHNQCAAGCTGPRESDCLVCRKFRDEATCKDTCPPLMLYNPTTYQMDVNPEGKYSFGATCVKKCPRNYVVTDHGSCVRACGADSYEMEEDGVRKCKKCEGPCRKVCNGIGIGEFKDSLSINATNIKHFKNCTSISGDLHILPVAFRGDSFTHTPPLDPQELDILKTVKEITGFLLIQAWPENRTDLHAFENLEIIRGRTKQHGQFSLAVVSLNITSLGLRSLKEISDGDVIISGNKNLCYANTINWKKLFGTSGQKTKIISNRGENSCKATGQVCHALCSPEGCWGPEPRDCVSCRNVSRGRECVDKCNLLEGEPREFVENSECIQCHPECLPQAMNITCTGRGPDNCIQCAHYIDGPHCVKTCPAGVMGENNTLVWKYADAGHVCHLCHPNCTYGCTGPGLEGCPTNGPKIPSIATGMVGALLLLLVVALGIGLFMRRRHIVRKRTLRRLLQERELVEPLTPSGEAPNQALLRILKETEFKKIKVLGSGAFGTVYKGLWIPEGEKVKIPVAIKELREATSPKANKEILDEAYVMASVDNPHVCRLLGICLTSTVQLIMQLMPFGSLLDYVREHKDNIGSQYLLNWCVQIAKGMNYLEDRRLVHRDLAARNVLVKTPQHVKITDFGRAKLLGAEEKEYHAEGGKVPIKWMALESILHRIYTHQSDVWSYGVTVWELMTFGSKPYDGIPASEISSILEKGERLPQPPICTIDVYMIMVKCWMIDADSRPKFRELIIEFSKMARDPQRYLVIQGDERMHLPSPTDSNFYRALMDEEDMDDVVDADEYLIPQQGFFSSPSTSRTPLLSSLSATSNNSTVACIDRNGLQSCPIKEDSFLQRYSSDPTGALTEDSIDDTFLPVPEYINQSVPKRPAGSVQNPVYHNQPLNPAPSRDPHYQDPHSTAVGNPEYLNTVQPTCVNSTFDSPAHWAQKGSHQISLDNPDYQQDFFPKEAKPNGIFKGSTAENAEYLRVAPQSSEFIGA
Outline: as §1

EGFR L858R = EGFR L858R (Homo sapiens, UniProt P00533, L858R); assay: EGFR degradation, Total EGFR (L858R-specific) HTRF, NCI-H3255; set-up: NCI-H3255 (harboring EGFR heterozygous L858R mutation); host or cells: NCI-H3255; conditions: Table 9A; NCI-H3255 cells, 6 hours, Total EGFR HTRF; read-out: H3255 EGFR DC50
Chain of EGFR L858R (P00533 25-1210 L858R): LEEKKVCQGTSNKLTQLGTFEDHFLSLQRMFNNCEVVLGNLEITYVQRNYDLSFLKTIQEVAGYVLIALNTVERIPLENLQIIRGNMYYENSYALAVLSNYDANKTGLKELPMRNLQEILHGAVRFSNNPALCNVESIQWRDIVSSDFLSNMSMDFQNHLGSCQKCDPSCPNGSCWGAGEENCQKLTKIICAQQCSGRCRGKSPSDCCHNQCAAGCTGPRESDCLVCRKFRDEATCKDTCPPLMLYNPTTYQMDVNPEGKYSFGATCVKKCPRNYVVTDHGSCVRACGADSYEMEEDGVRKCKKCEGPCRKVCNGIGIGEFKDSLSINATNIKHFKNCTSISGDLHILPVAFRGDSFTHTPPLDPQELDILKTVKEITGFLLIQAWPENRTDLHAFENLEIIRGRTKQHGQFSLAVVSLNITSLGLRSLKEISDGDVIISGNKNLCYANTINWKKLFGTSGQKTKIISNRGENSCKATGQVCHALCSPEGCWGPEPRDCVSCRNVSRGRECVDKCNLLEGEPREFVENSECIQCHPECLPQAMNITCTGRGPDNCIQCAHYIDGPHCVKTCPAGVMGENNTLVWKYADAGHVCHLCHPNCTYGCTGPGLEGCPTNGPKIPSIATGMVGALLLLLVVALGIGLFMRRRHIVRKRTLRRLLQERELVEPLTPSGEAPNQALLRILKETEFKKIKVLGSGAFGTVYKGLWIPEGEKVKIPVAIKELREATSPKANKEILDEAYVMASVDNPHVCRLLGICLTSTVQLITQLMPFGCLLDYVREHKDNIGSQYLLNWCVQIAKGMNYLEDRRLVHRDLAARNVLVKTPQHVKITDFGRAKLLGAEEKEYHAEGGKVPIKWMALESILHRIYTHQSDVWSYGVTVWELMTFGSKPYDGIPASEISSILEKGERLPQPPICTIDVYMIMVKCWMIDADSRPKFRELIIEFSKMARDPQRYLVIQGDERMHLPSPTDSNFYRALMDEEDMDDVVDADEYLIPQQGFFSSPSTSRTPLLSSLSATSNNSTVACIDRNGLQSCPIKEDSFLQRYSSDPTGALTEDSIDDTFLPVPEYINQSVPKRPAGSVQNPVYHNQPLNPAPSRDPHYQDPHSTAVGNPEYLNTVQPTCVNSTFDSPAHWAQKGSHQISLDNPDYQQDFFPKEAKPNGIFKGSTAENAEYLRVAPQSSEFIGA
Outline: as §1

T1 sequence (P00533 25-1210 T790M/L858R): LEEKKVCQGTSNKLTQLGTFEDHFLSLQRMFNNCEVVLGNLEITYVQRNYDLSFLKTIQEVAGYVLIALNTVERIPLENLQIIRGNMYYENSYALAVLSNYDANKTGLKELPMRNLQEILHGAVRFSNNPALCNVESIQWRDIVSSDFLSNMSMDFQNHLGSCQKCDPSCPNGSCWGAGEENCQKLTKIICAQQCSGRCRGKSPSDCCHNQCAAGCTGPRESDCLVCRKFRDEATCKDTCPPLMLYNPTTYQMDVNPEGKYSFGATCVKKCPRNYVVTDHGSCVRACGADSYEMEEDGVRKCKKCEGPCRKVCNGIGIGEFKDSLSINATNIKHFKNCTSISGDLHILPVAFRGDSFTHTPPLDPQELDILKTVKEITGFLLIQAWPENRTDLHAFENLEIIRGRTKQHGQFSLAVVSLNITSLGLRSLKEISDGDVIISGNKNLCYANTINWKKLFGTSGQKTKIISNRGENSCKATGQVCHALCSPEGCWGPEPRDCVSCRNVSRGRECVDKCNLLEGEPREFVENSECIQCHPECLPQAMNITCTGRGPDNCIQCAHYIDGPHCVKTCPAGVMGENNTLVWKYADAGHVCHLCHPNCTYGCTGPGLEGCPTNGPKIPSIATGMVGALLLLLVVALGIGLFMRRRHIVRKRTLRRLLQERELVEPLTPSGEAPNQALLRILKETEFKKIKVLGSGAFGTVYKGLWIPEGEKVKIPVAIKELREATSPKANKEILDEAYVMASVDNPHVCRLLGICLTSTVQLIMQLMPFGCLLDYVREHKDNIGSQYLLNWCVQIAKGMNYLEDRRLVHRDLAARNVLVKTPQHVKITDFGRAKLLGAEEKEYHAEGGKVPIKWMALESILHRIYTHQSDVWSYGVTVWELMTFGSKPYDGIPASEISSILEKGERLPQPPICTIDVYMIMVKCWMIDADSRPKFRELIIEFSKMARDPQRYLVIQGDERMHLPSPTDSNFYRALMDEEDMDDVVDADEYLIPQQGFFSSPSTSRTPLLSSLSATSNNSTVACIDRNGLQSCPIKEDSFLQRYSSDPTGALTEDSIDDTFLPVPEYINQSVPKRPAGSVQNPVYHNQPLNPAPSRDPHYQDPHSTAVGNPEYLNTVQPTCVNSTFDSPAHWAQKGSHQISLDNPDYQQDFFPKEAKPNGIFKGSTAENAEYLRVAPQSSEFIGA

Structure (SMILES)	DC50 (EGFR L858R-T790M) [nM]	DC50 (EGFR L858R-T790M-C797S) [nM]	DC50 (EGFR L858R) [nM]
O=C1CC[C@H](Nc2ccc(C3CCN(CC(=O)N4CCN(c5ccc(-c6cc(F)c7c(c6)C(=O)N(C(C(=O)Nc6nccs6)c6ncn8c6CCC8)C7)cc5)CC4)CC3)cc2)C(=O)N1 (stereo partly drawn) [Compound 56, 2-(6,7-dihydro-5H-pyrrolo[1,2-c]imidazol-1-yl)-2-[6-[4-[4-[2-[4-[4-[[(3S)-2,6-dioxo-3-piperidyl]amino]phenyl]-1-piperidyl]acetyl]piperazin-1-yl]phenyl]-4-fluoro-1-oxo-isoindolin-2-yl]-N-thiazol-2-yl-acetamide]	< 50	< 50	< 50
O=C1CC[C@H](Nc2ccc(C3CCN(CC(=O)N4CCN(c5ccc(-c6cc(F)c7c(c6)C(=O)N(C(C(=O)Nc6nccs6)c6ncn8c6C[C@@H](F)C8)C7)cc5)CC4)CC3)c(F)c2)C(=O)N1 (stereo partly drawn) [Compound 44, 2-[6-[4-[4-[2-[4-[4-[[(3S)-2,6-dioxo-3-piperidyl]amino]-2-fluoro-phenyl]-1-piperidyl]acetyl]piperazin-1-yl]phenyl]-4-fluoro-1-oxo-isoindolin-2-yl]-2-[(6R)-6-fluoro-6,7-dihydro-5H-pyrrolo[1,2-c]imidazol-1-yl]-N-thiazol-2-yl-acetamide]	< 50	< 50	< 50
N#Cc1cc(NC2CCC(=O)NC2=O)ccc1C1CCN(CC(=O)N2CCC(Oc3ccc(-c4cc(F)c5c(c4)C(=O)N(C(C(=O)Nc4nccs4)c4ncn6c4CCC6)C5)cc3)CC2)CC1 (stereo not drawn) [Compound 37]	< 50	< 50	< 50
O=C1CC[C@H](Nc2ccc(C3CCN(C(=O)CN4CCN(Cc5ccc(-c6cc(F)c7c(c6)C(=O)N(C(C(=O)Nc6nccs6)c6ncn8c6CCC8)C7)cc5)CC4)CC3)c(F)c2)C(=O)N1 (stereo partly drawn) [Compound 59, 2-(6,7-dihydro-5H-pyrrolo[1,2-c]imidazol-1-yl)-2-[6-[4-[[4-[2-[4-[4-[[(3S)-2,6-dioxo-3-piperidyl]amino]-2-fluoro-phenyl]-1-piperidyl]-2-oxo-ethyl]piperazin-1-yl]methyl]phenyl]-4-fluoro-1-oxo-isoindolin-2-yl]-N-thiazol-2-yl-acetamide]	< 50	< 50	< 50
O=C1CCC(Nc2ccc(C3CCN(CC(=O)N4CCC(c5ccc(-c6cc(F)c7c(c6)C(=O)N(C(C(=O)Nc6nccs6)c6ncn8c6CCC8)C7)cc5)CC4)CC3)cc2)C(=O)N1 (stereo not drawn) [Compound 21, 2-(6,7-dihydro-5H-pyrrolo[1,2-c]imidazol-1-yl)-2-(6-(4-(1-(2-(4-(4-((2,6-dioxopiperidin-3-yl)amino)phenyl)piperidin-1-yl)acetyl)piperidin-4-yl)phenyl)-4-fluoro-1-oxoisoindolin-2-yl)-N-(thiazol-2-yl)acetamide]	< 50	< 50	< 50

The remaining lines, values ahead:

DC50 (EGFR L858R-T790M) [nM]	DC50 (EGFR L858R-T790M-C797S) [nM]	DC50 (EGFR L858R) [nM]	Structure (SMILES)
< 50	< 50	< 50	Cn1nc(N2CCC(=O)NC2=O)c2ccc(C3CCN(CC(=O)N4CCN(c5ccc(-c6cc(F)c7c(c6)C(=O)N(C(C(=O)Nc6nccs6)c6ncn8c6CCC8)C7)cc5)CC4)CC3)cc21 (stereo not drawn) [Compound 17, 2-(6,7-dihydro-5H-pyrrolo[1,2-c]imidazol-1-yl)-2-(6-(4-(4-(2-(4-(3-(2,4-dioxotetrahydropyrimidin-1(2H)-yl)-1-methyl-1H-indazol-6-yl)piperidin-1-yl)acetyl)piperazin-1-yl)phenyl)-4-fluoro-1-oxoisoindolin-2-yl)-N-(thiazol-2-yl)acetamide]
< 50	< 50	< 50	O=C1CC[C@H](Nc2ccc(C3CCN(CC(=O)N4CCN(Cc5ccc(-c6cc(F)c7c(c6)C(=O)N(C(C(=O)Nc6nccs6)c6ncn8c6CCC8)C7)cc5)CC4)CC3)c(F)c2)C(=O)N1 (stereo partly drawn) [Compound 58, 2-(6,7-dihydro-5H-pyrrolo[1,2-c]imidazol-1-yl)-2-[6-[4-[[4-[2-[4-[4-[[(3S)-2,6-dioxo-3-piperidyl]amino]-2-fluoro-phenyl]-1-piperidyl]acetyl]piperazin-1-yl]methyl]phenyl]-4-fluoro-1-oxo-isoindolin-2-yl]-N-thiazol-2-yl-acetamide]
